Patent US20260266848A1, “COMPOSITIONS AND METHODS FOR DIAGNOSING AND TREATING DYSTONIA” (Duke University, priority 2023, published 2026)

System: DYT-TOR1A MEF EVs
Assay: Quantitative LC-MS/MS proteomics of EVs from drug-treated DYT-TOR1A MEF cultures (ritonavir, salubrinal)
Assay type: cell-based, mouse
Conditions: 20 μM, 24 h

## O=C(/C=C/c1ccccc1)NC(NC(=S)Nc1cccc2cccnc12)C(Cl)(Cl)Cl (stereo not drawn) [salubrinal]
  DYT disrupted proteins (n=363) with significant corrective effects of salubrinal: 13%
Of 1974 proteins
  total EV proteins significantly modified by salubrinal: 9%
DYT1+Sal/DYT1
  Acaa1a (ACAA1) EV abundance Log2_FC: −0.8007
  Ano6 (ANO6) EV abundance Log2_FC: −0.3535
  Ap1b1 (AP1B1) EV abundance Log2_FC: 0.5874
  Ar18b (ARL8B) EV abundance Log2_FC: −0.08283
  Bzw2 (BZW2) EV abundance Log2_FC: −0.03057
  Cryab (CRYAB) EV abundance Log2_FC: 1.025
  DIst (DLST) EV abundance Log2_FC: −0.5172
  Ehd4 (EHD4) EV abundance Log2_FC: −0.149
  Flna (FLNA) EV abundance Log2_FC: −0.07088
  Fscn1 (FSCN1) EV abundance Log2_FC: −0.1414
  Gart (GART) EV abundance Log2_FC: 0.05776
  Hist1h1b (H1-5) EV abundance Log2_FC: −0.1163
  Hnrnpc (HNRNPC) EV abundance Log2_FC: −0.2845
  Ipo9 (IPO9) EV abundance Log2_FC: 0.3059
  Jam3 (JAM3) EV abundance Log2_FC: −0.6132
  Lipg (LIPG) EV abundance Log2_FC: −0.4507
  Lrrc59 (LRRC59) EV abundance Log2_FC: −0.4226
  Mapk3 (MAPK3) EV abundance Log2_FC: 0.6764
  Mars (MARS1) EV abundance Log2_FC: −0.1637
  Mrc2 (MRC2) EV abundance Log2_FC: 0.01917
  Myh9 (MYH9) EV abundance Log2_FC: −0.2742
  Ndnf (NDNF) EV abundance Log2_FC: −0.5746
  Pcmt1 (PCMT1) EV abundance Log2_FC: 1.133
  Pi4ka (PI4KA) EV abundance Log2_FC: −1.039
  Pitpnb (PITPNB) EV abundance Log2_FC: 0.09822
  Prpsap2 (PRPSAP2) EV abundance Log2_FC: −0.0814
  Psmc5 (PSMC5) EV abundance Log2_FC: 0.4458
  Psmd12 (PSMD12) EV abundance Log2_FC: −0.203
  Psme4 (PSME4) EV abundance Log2_FC: −0.2099
  Ptma (PTMA) EV abundance Log2_FC: 1.235
  Rap2b (RAP2B) EV abundance Log2_FC: −0.3288
  Rbm3 (RBM3) EV abundance Log2_FC: 0.84
  Rhoa (RHOA) EV abundance Log2_FC: 0.2121
  Rpl10 (RPL10) EV abundance Log2_FC: −0.05107
  Rpl13a (RPL13A) EV abundance Log2_FC: −0.1384
  Rps13 (RPS13) EV abundance Log2_FC: 0.02541
  Sec31a (SEC31A) EV abundance Log2_FC: 0.1051
  Slc2a1 (SLC2A1) EV abundance Log2_FC: 0.1088
  Stom (STOM) EV abundance Log2_FC: 0.01864
  Tardbp (TARDBP) EV abundance Log2_FC: 0.4388
  Tgfb2 (TGFB2) EV abundance Log2_FC: 0.3062
  Tln1 (TLN1) EV abundance Log2_FC: −0.1915
  Tln2 (TLN2) EV abundance Log2_FC: −0.3236
  Tubb1 (TUBB1) EV abundance Log2_FC: −0.6949
  Usp7 (USP7) EV abundance Log2_FC: 1.365
  Wdr26 (WDR26) EV abundance Log2_FC: −0.03177
  Zyx (ZYX) EV abundance Log2_FC: −0.2196
DYT1/DYT1+Sal (inverse ratio)
  Acaa1a (ACAA1) EV abundance Log2_FC: 0.8007
  Ano6 (ANO6) EV abundance Log2_FC: 0.3535
  Ap1b1 (AP1B1) EV abundance Log2_FC: −0.5874
  Arl8b (ARL8B) EV abundance Log2_FC: 0.08283
  Bzw2 (BZW2) EV abundance Log2_FC: 0.03057
  Cryab (CRYAB) EV abundance Log2_FC: −1.025
  DIst (DLST) EV abundance Log2_FC: 0.5172
  Ehd4 (EHD4) EV abundance Log2_FC: 0.149
  Flna (FLNA) EV abundance Log2_FC: 0.07088
  Fscn1 (FSCN1) EV abundance Log2_FC: 0.1414
  Gart (GART) EV abundance Log2_FC: −0.05776
  Hist1h1b (H1-5) EV abundance Log2_FC: 0.1163
  Hnrnpc (HNRNPC) EV abundance Log2_FC: 0.2845
  Ipo9 (IPO9) EV abundance Log2_FC: −0.3059
  Jam3 (JAM3) EV abundance Log2_FC: 0.6132
  Lipg (LIPG) EV abundance Log2_FC: 0.4507
  Lrrc59 (LRRC59) EV abundance Log2_FC: 0.4226
  Mapk3 (MAPK3) EV abundance Log2_FC: −0.6764
  Mars (MARS1) EV abundance Log2_FC: 0.1637
  Mrc2 (MRC2) EV abundance Log2_FC: −0.01917
  Myh9 (MYH9) EV abundance Log2_FC: 0.2742
  Ndnf (NDNF) EV abundance Log2_FC: 0.5746
  Pcmt1 (PCMT1) EV abundance Log2_FC: −1.133
  Pi4ka (PI4KA) EV abundance Log2_FC: 1.039
  Pitpnb (PITPNB) EV abundance Log2_FC: −0.09822
  Prpsap2 (PRPSAP2) EV abundance Log2_FC: 0.0814
  Psmc5 (PSMC5) EV abundance Log2_FC: −0.4458
  Psmd12 (PSMD12) EV abundance Log2_FC: 0.203
  Psme4 (PSME4) EV abundance Log2_FC: 0.2099
  Ptma (PTMA) EV abundance Log2_FC: −1.235
  Rap2b (RAP2B) EV abundance Log2_FC: 0.3288
  Rbm3 (RBM3) EV abundance Log2_FC: −0.84
  Rhoa (RHOA) EV abundance Log2_FC: −0.2121
  Rpl10 (RPL10) EV abundance Log2_FC: 0.05107
  Rpl13a (RPL13A) EV abundance Log2_FC: 0.1384
  Rps13 (RPS13) EV abundance Log2_FC: −0.02541
  Sec31a (SEC31A) EV abundance Log2_FC: −0.1051
  Slc2a1 (SLC2A1) EV abundance Log2_FC: −0.1088
  Stom (STOM) EV abundance Log2_FC: −0.01864
  Tardbp (TARDBP) EV abundance Log2_FC: −0.4388
  Tgfb2 (TGFB2) EV abundance Log2_FC: −0.3062
  Tln1 (TLN1) EV abundance Log2_FC: 0.1915
  Tln2 (TLN2) EV abundance Log2_FC: 0.3236
  Tubb1 (TUBB1) EV abundance Log2_FC: 0.6949
  Usp7 (USP7) EV abundance Log2_FC: −1.365
  Wdr26 (WDR26) EV abundance Log2_FC: 0.03177
  Zyx (ZYX) EV abundance Log2_FC: 0.2196
